From patent US9828385B2, “Spiro-oxazolones” (Hoffmann-La Roche Inc., priority 2014, dated 2017)

Molecular target: T1, human V1a receptor (Homo sapiens, UniProt P37288)
T1 construct: expressed in transfected cells; host or cells: HEK293 cells, transiently transfected; cell membranes
Test: human V1a receptor binding studies (3H-Vasopressin, SPA beads)
Settings: membranes of HEK293 cells transiently transfected with human V1a receptor, Ki by Cheng-Prussoff from IC50, read-out: pKi hV1a (converted)
Description: The human V1a receptor was cloned by RT-PCR from total human liver RNA. The coding sequence was subcloned in an expression vector after sequencing to confirm the identity of the amplified sequence. […] Cell membranes were prepared from HEK293 cells transiently transfected with the expression vector and grown in 20 liter fermenters with the following protocol.
50 g of cells are re-suspended in 30 ml freshly prepared ice cold Lysis buffer (50 mM HEPES, 1 mM EDTA, 10 mM MgCl2 adjusted to pH=7.4+complete cocktail of protease inhibitor (Roche Diagnostics)). Homogenized with Polytron for 1 min and sonicated on ice for 2×2 minutes at 80% intensity (Vibracell sonicator). The preparation is centrifuged 20 min at 500 g at 4° C., the pellet is discarded and the supernatant centrifuged 1 hour at 43′000 g at 4° C. (19′000 rpm). The pellet is re-suspended in 12.5 ml Lysis buffer+12.5 ml Sucrose 20% and homogenized using a Polytron for 1-2 min. The protein concentration is determined by the Bradford method and aliquots are stored at −80° C. until use. For binding studies 60 mg Yttrium silicate SPA beads (Amersham) are mixed with an aliquot of membrane in binding buffer (50 mM Tris, 120 mM NaCl, 5 mM KCl, 2 mM CaCl2, 10 mM MgCl2) for 15 minutes with mixing. 50 μl of bead/membrane mixture is then added to each well of a 96 well plate, followed by 50 μl of 4 nM 3H-Vasopressin (American Radiolabeled Chemicals). For total binding measurement 100 μl of binding buffer are added to the respective wells, for non-specific binding 100 μl of […] cold vasopressin and for compound testing 100 μl of a serial dilution of each compound in 2% DMSO. The plate is incubated 1 h at room temperature, centrifuged 1 min at 1000 g and counted on a Packard Top-Count. Non-specific binding counts are subtracted from each well and data is normalized to the maximum specific binding set at 100%. To calculate an IC 50 the curve is fitted using a non-linear regression model (XLfit) and the Ki is calculated using the Cheng-Prussoff equation.

T1 sequence (P37288 whole entry): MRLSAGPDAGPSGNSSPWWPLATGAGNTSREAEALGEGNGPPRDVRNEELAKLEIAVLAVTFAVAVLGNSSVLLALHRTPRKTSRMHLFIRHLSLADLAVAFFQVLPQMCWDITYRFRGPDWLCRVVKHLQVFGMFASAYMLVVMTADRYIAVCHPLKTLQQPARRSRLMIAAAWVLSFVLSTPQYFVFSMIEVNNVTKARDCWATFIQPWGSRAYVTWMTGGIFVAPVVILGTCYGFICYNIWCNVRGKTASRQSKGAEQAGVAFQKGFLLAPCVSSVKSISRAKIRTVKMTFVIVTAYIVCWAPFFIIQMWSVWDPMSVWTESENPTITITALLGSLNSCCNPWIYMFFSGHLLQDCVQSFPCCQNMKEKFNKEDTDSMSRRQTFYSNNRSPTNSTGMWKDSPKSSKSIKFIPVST

Row | SMILES | Ki [nM]
1 | CC(c1ccccc1)C1(C)OC(N2CCC3(CC2)OCc2ccccc23)=NC1=O (single isomer, unassigned; diastereomer b) [Example 107, 5-Methyl-5-(1-phenylethyl)-2-(1′H,3H-spiro[2-benzofuran-1,4′-piperidin]-1′-yl)-1,3-oxazol-4(5H)-one diastereomer b] | 10
2 | CC(c1ccccc1)C1(C)OC(N2CCC3(CC2)OCc2ccccc23)=NC1=O (single isomer, unassigned; diastereomer b) [Example 110, (−)-5-Methyl-5-(1-phenylethyl)-2-(1′H,3H-spiro[2-benzofuran-1,4′-piperidin]-1′-yl)-1,3-oxazol-4(5H)-one diastereomer b] | 6.31
3 | CC(c1ccccc1)C1(C)OC(N2CCC3(CC2)OCc2ccccc23)=NC1=O (single isomer, unassigned; diastereomer b) [Example 111, (+)-5-Methyl-5-(1-phenylethyl)-2-(1′H,3H-spiro[2-benzofuran-1,4′-piperidin]-1′-yl)-1,3-oxazol-4(5H)-one diastereomer b] | 251
4 | CC(=O)O[C@H]1CC2(C[C@H]1OC(C)=O)OC(N1CCC3(CC1)OCc1ccccc13)=NC2=O (single isomer, unassigned; diastereomer b) [Example 121, 4-Oxo-2-(1′H,3H-spiro[2-benzofuran-1,4′-piperidin]-1′-yl)-1-oxa-3-azaspiro[4.4]non-2-ene-7,8-diyl diacetate diastereomer b] | 6.31
5 | CCCCCC1CCC2(CC1)OC(N1CCC3(CC1)OC(=O)c1ccccc13)=NC2=O (single isomer, unassigned; diastereomer b) [Example 127, 1′-[4-Oxo-8-pentyl-1-oxa-3-azaspiro[4.5]dec-2-en-2-yl]-3H-spiro[2-benzofuran-1,4′-piperidin]-3-one diastereomer b] | 251
6 | CCCCCC1CCC2(CC1)OC(N1CCC3(CC1)OCc1ccccc13)=NC2=O (single isomer, unassigned; diastereomer b) [Example 129, 8-Pentyl-2-(1′H,3H-spiro[2-benzofuran-1,4′-piperidin]-1′-yl)-1-oxa-3-azaspiro[4.5]dec-2-en-4-one diastereomer b] | 158
7 | O=C1N=C(N2CCC3(CC2)OCc2ccccc23)OC12C[C@@H]1OCCO[C@@H]1C2 (single isomer, unassigned; diastereomer b) [Example 145, 2′-(1′H,3H-Spiro[2-benzofuran-1,4′-piperidin]-1′-yl)-2,3,4a,5,7,7a-hexahydro-4′H-spiro[cyclopenta[b][1,4]dioxine-6,5′-[1,3]oxazol]-4′-one diastereomer b] | 50.1
8 | CCOC(=O)C1[C@H]2CC3(C[C@@H]12)OC(N1CCC2(CC1)OCc1ccccc12)=NC3=O (single isomer, unassigned; diastereomer b) [Example 149, Ethyl 4′-oxo-2′-(1′H,3H-spiro[2-benzofuran-1,4′-piperidin]-1′-yl)-4′H-spiro[bicyclo[3.1.0]hexane-3,5′-[1,3]oxazole]-6-carboxylate diastereomer b] | 200
9 | CCCCC1OC(N2CCC3(CC2)OC(=O)c2ccccc23)=NC1=O (single isomer, unassigned; enantiomer a) [Example 5, 1′-[5-Butyl-4-oxo-4,5-dihydro-1,3-oxazol-2-yl]-3H-spiro[2-benzofuran-1,4′-piperidin]-3-one enantiomer A] | 251
10 | O=C1OC2(CCN(C3=NC(=O)C(Cc4ccccc4)O3)CC2)c2ccccc21 (single isomer, unassigned; enantiomer a) [Example 20, 1′-[5-Benzyl-4-oxo-4,5-dihydro-1,3-oxazol-2-yl]-3H-spiro[2-benzofuran-1,4′-piperidin]-3-one enantiomer A] | 251
11 | CC1(Cc2ccccc2)OC(N2CCC3(CC2)OC(=O)c2ccccc23)=NC1=O (single isomer, unassigned; enantiomer a) [Example 72, 1′-[5-Benzyl-5-methyl-4-oxo-4,5-dihydro-1,3-oxazol-2-yl]-3H-spiro[2-benzofuran-1,4′-piperidin]-3-one enantiomer A] | 25.1
12 | CC1(Cc2ccc(Cl)cc2)OC(N2CCC3(CC2)OC(=O)c2ccccc23)=NC1=O (single isomer, unassigned; enantiomer a) [Example 80, 1′-[5-(4-Chlorobenzyl)-5-methyl-4-oxo-4,5-dihydro-1,3-oxazol-2-yl]-3H-spiro[2-benzofuran-1,4′-piperidin]-3-one enantiomer A] | 20
13 | CCCCC1OC(N2CCC3(CC2)OC(=O)c2ccccc23)=NC1=O (single isomer, unassigned; enantiomer b) [Example 6, 1′-[5-Butyl-4-oxo-4,5-dihydro-1,3-oxazol-2-yl]-3H-spiro[2-benzofuran-1,4′-piperidin]-3-one enantiomer B] | 20
14 | O=C1OC2(CCN(C3=NC(=O)C(Cc4ccccc4)O3)CC2)c2ccccc21 (single isomer, unassigned; enantiomer b) [Example 21, 1′-[5-Benzyl-4-oxo-4,5-dihydro-1,3-oxazol-2-yl]-3H-spiro[2-benzofuran-1,4′-piperidin]-3-one enantiomer B] | 5.01
15 | CC1(Cc2ccccc2)OC(N2CCC3(CC2)OC(=O)c2ccccc23)=NC1=O (single isomer, unassigned; enantiomer b) [Example 73, 1′-[5-Benzyl-5-methyl-4-oxo-4,5-dihydro-1,3-oxazol-2-yl]-3H-spiro[2-benzofuran-1,4′-piperidin]-3-one enantiomer B] | 251
16 | CC1(Cc2ccc(Cl)cc2)OC(N2CCC3(CC2)OC(=O)c2ccccc23)=NC1=O (single isomer, unassigned; enantiomer b) [Example 81, 1′-[5-(4-Chlorobenzyl)-5-methyl-4-oxo-4,5-dihydro-1,3-oxazol-2-yl]-3H-spiro[2-benzofuran-1,4′-piperidin]-3-one enantiomer B] | 501

The remaining lines, values ahead:

Row | Ki [nM] | SMILES
17 | 0.794 | O=C1N=C(N2CCC3(CC2)OCc2ccccc23)OC1CC1CCCC1 (single isomer, unassigned; enantiomer a) [Example 13, 5-(Cyclopentylmethyl)-2-(1′H,3H-spiro[2-benzofuran-1,4′-piperidin]-1′-yl)-1,3-oxazol-4(5H)-one enantiomer A]
18 | 2.51 | O=C1OC2(CCN(C3=NC(=O)C(CC4CCCC4)O3)CC2)c2ccccc21 (single isomer, unassigned; enantiomer a) [Example 15, 1′-[5-(Cyclopentylmethyl)-4-oxo-4,5-dihydro-1,3-oxazol-2-yl]-3H-spiro[2-benzofuran-1,4′-piperidin]-3-one enantiomer A]
19 | 2.51 | O=C1N=C(N2CCC3(CC2)OCc2ccccc23)OC1CC1CCCC1 (single isomer, unassigned; enantiomer b) [Example 14, 5-(Cyclopentylmethyl)-2-(1′H,3H-spiro[2-benzofuran-1,4′-piperidin]-1′-yl)-1,3-oxazol-4(5H)-one enantiomer B]
20 | 12.6 | O=C1OC2(CCN(C3=NC(=O)C(CC4CCCC4)O3)CC2)c2ccccc21 (single isomer, unassigned; enantiomer b) [Example 16, 1′-[5-(Cyclopentylmethyl)-4-oxo-4,5-dihydro-1,3-oxazol-2-yl]-3H-spiro[2-benzofuran-1,4′-piperidin]-3-one enantiomer B]
21 | 79.4 | CCCC1OC(N2CCC3(CC2)OCc2ccccc23)=NC1=O (centres unmarked) [Example 1, 5-Propyl-2-(1′H,3H-spiro[2-benzofuran-1,4′-piperidin]-1′-yl)-1,3-oxazol-4(5H)-one]
22 | 5.01 | CCCCC1OC(N2CCC3(CC2)OCc2ccccc23)=NC1=O (centres unmarked) [Example 2, 5-Butyl-2-(1′H,3H-spiro[2-benzofuran-1,4′-piperidin]-1′-yl)-1,3-oxazol-4(5H)-one]
23 | 20 | CC(C)CC1OC(N2CCC3(CC2)OCc2ccccc23)=NC1=O (centres unmarked) [Example 7, 5-(2-Methylpropyl)-2-(1′H,3H-spiro[2-benzofuran-1,4′-piperidin]-1′-yl)-1,3-oxazol-4(5H)-one]
24 | 158 | C=CCC1OC(N2CCC3(CC2)OCc2ccccc23)=NC1=O (centres unmarked) [Example 8, 5-(Prop-2-en-1-yl)-2-(1′H,3H-spiro[2-benzofuran-1,4′-piperidin]-1′-yl)-1,3-oxazol-4(5H)-one]
25 | 2 | C=C(C)CC1OC(N2CCC3(CC2)OCc2ccccc23)=NC1=O (centres unmarked) [Example 9, 5-(2-Methylprop-2-en-1-yl)-2-(1′H,3H-spiro[2-benzofuran-1,4′-piperidin]-1′-yl)-1,3-oxazol-4(5H)-one]
26 | 3.98 | C=C(CC1OC(N2CCC3(CC2)OCc2ccccc23)=NC1=O)C(F)(F)F (centres unmarked) [Example 10, 2-(1′H,3H-Spiro[2-benzofuran-1,4′-piperidin]-1′-yl)-5-[2-(trifluoromethyl)prop-2-en-1-yl]-1,3-oxazol-4(5H)-one]
